Reference: PMC7369796, “The Diverse Piscidin Repertoire of the European Sea Bass (Dicentrarchus labrax): Molecular Characterization and Antimicrobial Activities” (International Journal of Molecular Sciences, 2020)
Where two headings read alike, the source gives them in different places. Ends that are not written are not given here.

What was measured:
[1] = test system: Aeromonas salmonicida subsp. salmonicida (DSM 19634); format: cell-based; conditions: DSM 19634, 24 h
Description: (§1) The biological activity of sea bass piscidin mature peptides was studied by determining their antimicrobial properties. Synthetic piscidin peptides were based on the predicted coding sequences and were commercially produced (NZYtech, Lisbon, Portugal) with an additional C-terminal amidation (Table S3). Peptides were incubated in serial dilutions with ten bacterial strains, known to cause severe diseases in aquaculture: Photobacterium damselae subsp. piscicida (DSM 22834), P. damselae subsp. damselae (DSM 7482), Vibro anguillarum (DSM 21597), V. alginolyticus (DSM 2171), Aeromonas salmonicida subsp. salmonicida (DSM 19634), A. hydrophila subsp. hydrophila (DSM 30187), Yersinia ruckeri (DSM 18506), Edwardsiella tarda (DSM 30052), Lactococcus garviae (DSM 20684) and Streptococcus parauberis (DSM 6631). In short, 1 × 10^8 bacteria per milliliter were incubated in optimal growth conditions with the peptide in flat-bottom 96-well plates, in a final volume of 100 µL, and OD was read at 600 nm in a plate reader after 24 h of incubation. Wells with no added peptide were used as controls, and wells without bacteria were used as blanks. The minimal inhibitory concentration (MIC) was determined as the lowest concentration of piscidin that reduced 50% of bacterial growth when compared to the controls. The MICs reported correspond to representative results from two independent experiments.

[2] = test system: V. alginolyticus (DSM 2171); format: cell-based; conditions: DSM 2171, 24 h
Description: as §1

[3] = test system: Yersinia ruckeri (DSM 18506); format: cell-based; conditions: DSM 18506, 24 h
Description: as §1

[4] = test system: Lactococcus garviae (DSM 20684); format: cell-based; conditions: DSM 20684, 24 h
Description: as §1

[5] = test system: Photobacterium damselae subsp. piscicida (DSM 22834); format: cell-based; conditions: DSM 22834, 24 h
Description: as §1

[6] = test system: Streptococcus parauberis (DSM 6631); format: cell-based
Description: as §1

[7] = test system: Trypanosoma brucei brucei bloodstream forms (strain Lister 427); assay: Antiparasitic activity (resazurin reduction, IC50); format: cell-based; conditions: T. brucei brucei bloodstream forms; 72 h, serial dilutions up to 100 µM, 96-well, 200 µL; resazurin reduction (fluorescence 544/590 nm); non-linear regression; means ± SD, two separate experiments
Description: (§2) The anti-protozoal activity of sea bass piscidins was evaluated using two parasites: Trypanosoma brucei brucei bloodstream forms (strain Lister 427) and Leishmania infantum promastigotes (strain MHOM/MA/67/ITMAP-263). Parasites were incubated in optimal growth conditions with serial dilutions of the different peptides in flat-bottom 96-well plates, in a final volume of 200 µL, during 72 h. Cell metabolic activity was measured by resazurin reduction. Briefly, 20 µL of resazurin (50 µM) were added and incubated for 4 h. The fluorescence of resorufin, resulting from resazurin reduction by metabolically active cells, was measured at λex = 544 nm and λem = 590 nm in Synergy 2 (BioTek, Winooski, Vermont, USA). Cultures with no added peptide were used as negative controls and cultures with the reference drugs, namely pentamidine (10 nM) and miltefosine (40 µM) were used as positive controls for T. brucei and L. infantum inhibition assays, respectively. Wells with culture medium were used as blanks. Anti-parasitic effect was evaluated by the determination of IC50 value (concentration required to inhibit growth in 50%) and calculated by non-linear regression analysis using GraphPad Prism version 8.1.1 for Windows (GraphPad Software, San Diego, CA, USA). The IC50 reported correspond to representative results from two independent experiments.

[8] = test system: Leishmania infantum promastigotes (strain MHOM/MA/67/ITMAP-263); format: cell-based; conditions: 72 h
Description: as §2

[9] = test system: Vibro anguillarum (DSM 21597); format: cell-based, V. anguillarum; conditions: DSM 21597, 24 h
Description: as §1

[10] = test system: P. damselae subsp. damselae (DSM 7482); format: cell-based, Photobacterium damselae subsp. damselae; conditions: DSM 7482, 24 h
Description: as §1

| Substance | MIC [1] [µM] | MIC [2] [µM] | MIC [3] [µM] | MIC [4] [µM] | MIC [5] [µM] | MIC ([6]; DSM 6631, 24 h) [µM] | IC50 [7] [µM] | IC50 [8] [µM] | MIC [9] [µM] | MIC [10] [µM] | MIC ([6]; S. parauberis, 1 × 10^8 bacteria/mL, 96-well, 100 µL, 24 h, OD 600 nm, serial dilutions up to 200 µM, MIC = lowest concentration that reduced 50% of bacterial growth vs controls, means ± SD, two separate experiments, N.A. = not active at the highest concentration tested) [µM] |
| --- | --- | --- | --- | --- | --- | --- | --- | --- | --- | --- | --- |
| FFHHIFRGIVHVGKTIHRLVTG-NH2 [Piscidin1] | 64.2 ± 2.1 | 34.8 ± 0.3 | 48.4 ± 3.8 | 33.9 ± 3.8 | 7.4 ± 1.6 | 2.4 ± 0.8 | 3.88 ± 0.11 | 5.2 ± 0.03 | 16.3 ± 0.6 | 15.0 ± 0.2 | – |
| FIHHIFRGIINAGKSIGRFITG-NH2 [Piscidin4] | – | – | – | 48.8 ± 40.1 | 29.1 ± 12.0 | 1.8 ± 1.8 | 3.24 ± 0.16 | 8.34 ± 0.81 | – | 81.3 ± 9.5 | – |
| FLGRFFRRTQAILRGARQGWRAHKAVSRYRDRYIPETDNNQEQP-NH2 [Piscidin2] | 67.7 ± 0.2 | 66.2 ± 2.0 | 137.6 ± 3.1 | – | 9.1 ± 1.7 | 6.9 ± 2.8 | 1.74 ± 0.13 | 5.52 ± 0.26 | 146.1 ± 21.4 | 105.8 ± 22.1 | – |
| FLGRVKSMWSGVRNGYKAYKYQRNMAKMNKGYGPNWQQGGGQEPPADAQANDQPP-NH2 [Piscidin7] | – | – | – | – | – | – | 7.3 ± 0.32 | 66.77 ± 0.08 | – | – | – |
| LFGSLKAWFKGGKQASRDYKYQKDMAKMNKRYGPNWQQGGGQQPPANAQANDQPPADAQANDQPS-NH2 [Piscidin6, synthetic putative mature peptide of European sea bass piscidin 6, 65 aa, MT066195] | – | – | – | – | – | – | 56.5 ± 1.61 | – | – | – | 87.7 ± 123.0 |
| LIGSLFRGAKAIFRGARQGWRAHKAVSRYRAGYVRRPVVYYHRVYP-NH2 [Piscidin5] | 47.9 ± 6.1 | 36.9 ± 2.3 | 25.4 ± 1.8 | 42.3 ± 16.4 | 3.3 ± 0.1 | 1.3 ± 1.2 | 4.42 ± 0.12 | 7.24 ± 0.61 | 10.1 ± 2.7 | 14.8 ± 2.0 | – |
